According to patent publication US20140303367A1, “Methods for Synthesizing Molybdopterin Precursor Z Derivatives” (Alexion Pharma International Sàrl, priority 2011, published 2014):

What was measured:
[1] = molecular target: MPT synthase from E. coli (Escherichia coli, UniProt P30748+P30749); experiment: In vitro synthesis of MPT from cPMP; type: biochemical; settings: FIGS. 2 and 3; for conversion of cPMP into MPT: all samples
Excerpt: In vitro synthesis of MPT was compared using samples of synthetic precursor Z (cPMP) and cPMP purified from E. coli. MPT synthesis also involved the use of in vitro assembled MPT synthase from E. coli. See U.S. Pat. No. 7,504,095 and “Biosynthesis and molecular biology of the molybdenum cofactor (Moco)” in Metal Ions in Biological Systems, Mendel, Ralf R. and Schwarz, Günter, Informa Plc, 2002, Vol. 39, pages 317-68.

[2] = tested on: human apo-sulfite oxidase; experiment: In vitro synthesis of Moco from cPMP (conversion into MPT, molybdate insertion, reconstitution of apo-sulfite oxidase); type: biochemical; settings: FIG. 1
Excerpt: In vitro synthesis of Moco was compared using samples of synthetic precursor Z (cPMP) and cPMP purified from E. coli. Moco synthesis also involved the use of the purified components E. coli MPT synthase, gephyrin, molybdate, ATP, and apo-sulfite oxidase. See U.S. Pat. No. 7,504,095 and “Biosynthesis and molecular biology of the molybdenum cofactor (Moco)” in Metal Ions in Biological Systems, Mendel, Ralf R. and Schwarz, Günter, Informa Plc, 2002, Vol. 39, pages 317-68. The assay is based on the conversion of cPMP into MPT, the subsequent molybdate insertion using recombinant gephyrin and ATP, and finally the reconstitution of human apo-sulfite oxidase.

Sequence of MPT synthase from E. coli (P30749 whole entry): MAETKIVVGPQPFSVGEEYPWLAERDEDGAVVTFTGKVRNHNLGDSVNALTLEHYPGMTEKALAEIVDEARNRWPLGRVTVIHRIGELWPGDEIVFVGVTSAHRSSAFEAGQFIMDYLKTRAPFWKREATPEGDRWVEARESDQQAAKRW
Sequence of MPT synthase from E. coli (P30748 whole entry): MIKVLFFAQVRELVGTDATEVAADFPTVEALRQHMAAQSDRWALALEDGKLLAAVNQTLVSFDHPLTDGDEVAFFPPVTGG

Compound: Nc1nc(=O)c2c([nH]1)N[C@@H]1O[C@@H]3COP(=O)(O)O[C@@H]3C(O)(O)[C@@H]1N2 [E. coli purified cPMP, reference compound]
- conversion of cPMP into MPT ([1]; in vitro): linear conversion

Compound: Nc1nc2c(c(=O)[nH]1)N[C@@H]1[C@H](N2)O[C@@H]2COP(=O)(O)O[C@@H]2C1(O)O [synthetic cPMP, (4aR,5aR,11aR,12aS)-1,3,2-Dioxaphosphorino[4′,5′:5,6]pyrano[3,2-g]pteridin-10(4H)-one,8-amino-4a,5a,6,9,11,11a,12,12a-octahydro-2,12,12-trihydroxy-2-oxide]
- Moco synthesis ([2]; E. coli MPT synthase, gephyrin, molybdate, ATP, apo-sulfite oxidase): confirmed
- Moco conversion in comparison to E. coli purified cPMP [2]: no differences
- MPT synthesis ([1]; in vitro assembled MPT synthase from E. coli, three repetitions): confirmed
- conversion of cPMP into MPT ([1]; in vitro): linear conversion
- MPT conversion compared to E. coli purified cPMP ([1]; in vitro, three repetitions): no apparent differences
